Publication PMC12584752, “Covalent fragment screening to inhibit the E3 ligase activity of bacterial NEL enzymes SspH1 and SspH2” (RSC Chemical Biology, 2025)

Legend:
[1] = system: human cell lysate (HEK293T); experiment: IA-DTB chemoproteomics, proteome-wide engagement in lysate; type: binding; settings: engaged peptides log2 CR ≤−1, P-value ≤0.05 vs DMSO
Protocol: HEK293T lysate supplemented with recombinant SspH1 (161–700) and SspH2 (166–783) was treated with a dilution series […] of either compound 6 or 7 for four hours at RT. Following compound treatments, we used an iodoacetamide-desthiobiotin (IA-DTB) competitive chemoproteomics workflow to assess cysteine engagement.[52] Comparison of DMSO treated lysate with compound treated lysate enabled identification of peptides where IA-DTB labelling of cysteines was blocked due to fragment engagement (Fig. S5). […] Competition of the SspH2 C580 peptide occurred at lower concentrations compared to the SspH1 C492 peptide, which corroborated our previous kinetics experiments that both compounds label SspH2 faster than SspH1 (Fig. S4).
A pellet of 50 × 10^6 HEK293T cells was resuspended in 5 mL lysis buffer (50 mM HEPES pH 8.0, 150 mM NaCl, 1% IGEPAL, 0.1% SDS, 0.5% Na-deoxycholate, supplemented with protease inhibitor cocktail (Sigma-Aldrich, P8340)). The lysate was sonicated and centrifuged (10 min, 17 000 × g) and the soluble fraction isolated. Protein concentrations were measured using a Rapid BCA Gold Protein Assay Kit (Thermo Scientific, A53226) and diluted to 0.75 mg mL^−1 with lysis buffer. The lysate was then spiked with 0.2 μM of each recombinant SspH1 (aa 161–700) and SspH2 (aa 166–783). […]

SspH1 (161–700) = SspH1 (161–700) (Salmonella typhimurium, UniProt D0ZVG2); experiment: Round 1 intact protein LC-MS covalent fragment labelling screen and dilution series; type: binding; parameters: Recombinant IpaH9.8 (21–545) and SspH1 (161–700) were incubated at 0.5 μM; His-tag (N, cleaved yes); made in house; host or cells: E. coli BL21; settings: 24 hours at 4 °C
Protocol: A diverse library of 227 compounds with chloroacetamide warheads, featuring a diversity of molecular weight (162–321 Da) and clog P (−1.4 to 3.4) (Table S1), were screened against Salmonella and Shigella NEL E3 ligases using our intact protein liquid chromatography mass spectrometry (LC-MS) platform as previously described.[39,40] Briefly, recombinant SspH1 (161–700[30]) and IpaH9.8 (21–545[29]) (Fig. 1A and B) were incubated with 50 μM fragments for 24 hours at 4 °C before analysis by LC-MS (Fig. 1C). Raw counts were deconvoluted and the labelling percentage calculated by detection and comparison of protein and protein-fragment molecular weights.
Fig. 1 Intact protein LCMS screening of covalent fragment library against NEL proteins. (A) Cartoon depicting conserved NEL E3 ligase domains; (B) overlaid structures of SspH1 (blue, PDB 9H6W[30]) and IpaH9.8 (green, PDB 6LOL[29]) aligned on NEL domain; (C) workflow of covalent fragment screening using intact LC-MS; (D) fragment labelling percentages for SspH1 and IpaH9.8 with fragments 1–3 highlighted. Recombinant IpaH9.8 (21–545) and SspH1 (161–700) were incubated at 0.5 μM with 50 μM fragments for 24 hours at 4 °C, before fragment labelling was analysed by intact LC-MS; (E) chemical structures of fragments 1–3.
We next analysed the potency of compounds 4–10 against SspH1. The seven compounds were obtained as purified compounds (Table S2) and screened against SspH1 by intact LC-MS (Fig. 3A) with two-fold serial dilution (100–6.25 μM). To confirm which of the two cysteines in the SspH1 161–700 construct were labelled, we repeated the concentration response experiment with a catalytic cysteine mutant of SspH1 (C492K) (Fig. 3B). The complete abrogation of labelling confirmed that all […] compounds labelled the catalytic cysteine of SspH1.
1 μM IpaH9.8 or SspH1 were incubated with […] fragments for 24 hours at 4 °C, in 25 mM HEPES pH 7.5, 50 mM NaCl buffer. Intact protein LC-MS was performed as previously described.[40] The following deconvolution conditions were used for recombinant proteins studied in this work:
Dilution series experiments were performed as for 1st round screening. 1 μM OTUD4, OTUD5 or 0.5 μM HOIL, UbcH5A, SspH2, SspH1 C492K were incubated with 100–6.25 μM compounds for 24 hours at 4 °C, in 25 mM HEPES pH 7.5, 50 mM NaCl buffer. Intact protein LC-MS was performed as previously described.[40] The following deconvolution conditions were used for recombinant proteins studied in this work: […]

SspH1 (161–700), sequence (D0ZVG2 161-700): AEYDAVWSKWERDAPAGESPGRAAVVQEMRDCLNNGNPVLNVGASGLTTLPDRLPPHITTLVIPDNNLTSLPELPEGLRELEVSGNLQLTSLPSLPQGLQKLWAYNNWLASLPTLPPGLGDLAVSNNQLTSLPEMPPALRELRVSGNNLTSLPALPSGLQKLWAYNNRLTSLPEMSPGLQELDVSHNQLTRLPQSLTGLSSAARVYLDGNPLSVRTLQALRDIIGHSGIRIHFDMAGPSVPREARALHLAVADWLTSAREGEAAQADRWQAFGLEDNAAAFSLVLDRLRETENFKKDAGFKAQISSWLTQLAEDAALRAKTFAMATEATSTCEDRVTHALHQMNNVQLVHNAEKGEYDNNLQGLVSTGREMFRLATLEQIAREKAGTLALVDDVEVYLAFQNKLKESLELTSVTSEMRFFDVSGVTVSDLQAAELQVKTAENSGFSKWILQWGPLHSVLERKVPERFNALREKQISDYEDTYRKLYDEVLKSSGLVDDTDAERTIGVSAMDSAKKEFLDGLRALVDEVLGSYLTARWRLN

## Cl.O=C(CCl)N1CCC(n2c(-c3ccc(C(F)(F)F)cc3)nc3ccccc32)CC1 [compound 7]
[1]
  proteome-wide labelling in human cell lysate: promiscuous protein labellers
SspH1 (161–700); purified compound at 6.25 μM
  labelling of WT SspH1: > 60%
SspH1 (161–700); purified compound at 12.5 μM
  labelling of WT SspH1: > 80%

## Cc1cc(-c2nc3ccccc3n2C2CCN(C(=O)CCl)CC2)cc(C)c1O.Cl [compound 6]
[1]
  proteome-wide labelling in human cell lysate: promiscuous protein labellers
SspH1 (161–700); purified compound at 6.25 μM
  labelling of WT SspH1: > 60%
SspH1 (161–700); purified compound at 12.5 μM
  labelling of WT SspH1: > 80%
